Laboratory results taken from article PMC7026418, “The kinase polypharmacology landscape of clinical PARP inhibitors” (Scientific Reports, 2020).
Where two headings read alike, the source gives them in different places. Each block holds one molecule with its values, some of them ahead of it.

Experiments:
Test in all cases: biochemical
Design in all cases: DiscoveRx KINOMEscan active site-directed competition binding; percent of control kinase bound to immobilised ligand
AMPK-alpha2 = biological target: T1, AMPK-alpha2 (Homo sapiens, UniProt P54646)
T1 construct: gene PRKAA2

EIF2AK1 = EIF2AK1 (Homo sapiens, UniProt Q9BQI3)
FLT3(N841I) = biological target: T2, FLT3(N841I) (Homo sapiens, UniProt P36888, N841I)
T2 sequence (P36888 1-993 N841I): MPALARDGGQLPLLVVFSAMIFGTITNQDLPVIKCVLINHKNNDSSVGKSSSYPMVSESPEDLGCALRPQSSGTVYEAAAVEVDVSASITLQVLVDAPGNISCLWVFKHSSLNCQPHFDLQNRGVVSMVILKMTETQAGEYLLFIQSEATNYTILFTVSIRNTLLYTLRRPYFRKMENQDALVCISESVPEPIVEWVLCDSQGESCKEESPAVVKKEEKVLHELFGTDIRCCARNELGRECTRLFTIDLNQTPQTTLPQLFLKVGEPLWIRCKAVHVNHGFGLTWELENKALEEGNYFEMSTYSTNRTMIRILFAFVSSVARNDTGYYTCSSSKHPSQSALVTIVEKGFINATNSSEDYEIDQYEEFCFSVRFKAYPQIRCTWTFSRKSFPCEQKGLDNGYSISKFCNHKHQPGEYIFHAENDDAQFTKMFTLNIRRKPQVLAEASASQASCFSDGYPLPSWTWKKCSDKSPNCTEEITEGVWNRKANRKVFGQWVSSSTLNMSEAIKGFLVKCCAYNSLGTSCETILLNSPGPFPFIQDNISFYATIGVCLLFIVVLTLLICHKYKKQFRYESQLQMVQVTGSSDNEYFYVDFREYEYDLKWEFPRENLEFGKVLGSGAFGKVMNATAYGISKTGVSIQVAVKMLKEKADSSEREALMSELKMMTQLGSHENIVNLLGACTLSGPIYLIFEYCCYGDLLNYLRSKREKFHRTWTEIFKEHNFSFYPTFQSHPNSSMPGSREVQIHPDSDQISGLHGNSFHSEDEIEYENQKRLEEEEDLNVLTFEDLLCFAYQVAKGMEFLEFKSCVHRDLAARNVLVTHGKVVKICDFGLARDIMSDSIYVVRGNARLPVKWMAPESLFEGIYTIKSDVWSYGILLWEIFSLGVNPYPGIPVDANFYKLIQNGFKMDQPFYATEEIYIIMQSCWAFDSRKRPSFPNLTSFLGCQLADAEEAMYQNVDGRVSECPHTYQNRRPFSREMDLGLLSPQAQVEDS

MEK5 = biological target: T3, MEK5 (Homo sapiens, UniProt Q13163)
T3 construct: gene MAP2K5
T3 sequence (Q13163 1-448): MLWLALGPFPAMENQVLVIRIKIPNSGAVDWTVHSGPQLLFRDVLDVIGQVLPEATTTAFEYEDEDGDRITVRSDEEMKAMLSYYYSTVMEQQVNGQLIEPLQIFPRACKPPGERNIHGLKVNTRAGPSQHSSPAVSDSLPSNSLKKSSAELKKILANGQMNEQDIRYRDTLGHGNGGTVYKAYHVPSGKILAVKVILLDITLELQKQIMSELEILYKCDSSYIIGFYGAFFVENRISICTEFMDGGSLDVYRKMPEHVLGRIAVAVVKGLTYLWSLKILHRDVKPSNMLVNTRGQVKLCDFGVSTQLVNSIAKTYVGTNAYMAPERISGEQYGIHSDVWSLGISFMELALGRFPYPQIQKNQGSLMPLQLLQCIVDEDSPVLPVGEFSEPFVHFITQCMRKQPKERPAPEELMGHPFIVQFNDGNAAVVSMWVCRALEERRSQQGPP

NIK = biological target: T4, NIK (Homo sapiens, UniProt Q99558)
T4 construct: gene MAP3K14

PRKCE = biological target: T5, PRKCE (Homo sapiens, UniProt Q02156)
T5 sequence (Q02156 1-737): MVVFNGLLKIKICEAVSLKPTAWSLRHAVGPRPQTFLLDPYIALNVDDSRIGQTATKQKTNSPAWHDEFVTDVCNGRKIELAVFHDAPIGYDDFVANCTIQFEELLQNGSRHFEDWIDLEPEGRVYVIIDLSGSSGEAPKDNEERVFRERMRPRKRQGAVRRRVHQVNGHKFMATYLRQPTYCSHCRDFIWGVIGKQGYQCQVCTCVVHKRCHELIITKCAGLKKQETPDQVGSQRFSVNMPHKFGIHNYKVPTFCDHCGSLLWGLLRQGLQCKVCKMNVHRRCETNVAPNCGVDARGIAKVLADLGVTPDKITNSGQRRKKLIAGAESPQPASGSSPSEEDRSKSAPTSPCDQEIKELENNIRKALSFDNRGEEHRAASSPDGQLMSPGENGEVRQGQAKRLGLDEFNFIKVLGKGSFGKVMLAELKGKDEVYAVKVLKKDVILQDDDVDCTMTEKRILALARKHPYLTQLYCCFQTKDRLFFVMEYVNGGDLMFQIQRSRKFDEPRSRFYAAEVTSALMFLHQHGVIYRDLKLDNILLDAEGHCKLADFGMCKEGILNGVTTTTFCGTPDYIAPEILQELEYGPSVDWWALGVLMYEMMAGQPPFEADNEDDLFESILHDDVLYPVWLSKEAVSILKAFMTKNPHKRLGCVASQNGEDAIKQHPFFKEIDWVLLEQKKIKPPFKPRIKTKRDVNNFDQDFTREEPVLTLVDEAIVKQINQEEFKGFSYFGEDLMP

[1] = read-out: Niraparib (MK-4827) / %Ctrl @ 10000nM
[2] = read-out: Olaparib / %Ctrl @ 10000nM
[3] = read-out: Rucaparib / %Ctrl @ 10000nM, binding competition, % of control
[4] = read-out: Talazoparib (BMN 673) / %Ctrl @ 10000nM

T1 sequence (P54646 whole entry): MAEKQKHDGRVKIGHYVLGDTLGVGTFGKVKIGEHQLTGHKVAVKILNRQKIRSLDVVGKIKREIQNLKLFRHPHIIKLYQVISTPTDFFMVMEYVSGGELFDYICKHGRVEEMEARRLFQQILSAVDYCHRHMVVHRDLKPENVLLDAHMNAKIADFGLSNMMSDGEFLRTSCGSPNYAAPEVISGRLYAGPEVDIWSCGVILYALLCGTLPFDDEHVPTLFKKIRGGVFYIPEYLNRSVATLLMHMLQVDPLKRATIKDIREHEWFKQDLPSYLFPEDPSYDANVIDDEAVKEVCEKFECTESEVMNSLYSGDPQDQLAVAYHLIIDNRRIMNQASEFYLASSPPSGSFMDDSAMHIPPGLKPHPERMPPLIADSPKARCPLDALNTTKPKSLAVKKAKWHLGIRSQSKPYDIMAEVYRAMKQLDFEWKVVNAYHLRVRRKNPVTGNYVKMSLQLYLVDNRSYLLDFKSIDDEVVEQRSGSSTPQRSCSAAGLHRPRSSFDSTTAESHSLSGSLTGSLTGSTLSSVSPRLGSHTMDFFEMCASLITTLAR
Chain of EIF2AK1 (Q9BQI3 whole entry): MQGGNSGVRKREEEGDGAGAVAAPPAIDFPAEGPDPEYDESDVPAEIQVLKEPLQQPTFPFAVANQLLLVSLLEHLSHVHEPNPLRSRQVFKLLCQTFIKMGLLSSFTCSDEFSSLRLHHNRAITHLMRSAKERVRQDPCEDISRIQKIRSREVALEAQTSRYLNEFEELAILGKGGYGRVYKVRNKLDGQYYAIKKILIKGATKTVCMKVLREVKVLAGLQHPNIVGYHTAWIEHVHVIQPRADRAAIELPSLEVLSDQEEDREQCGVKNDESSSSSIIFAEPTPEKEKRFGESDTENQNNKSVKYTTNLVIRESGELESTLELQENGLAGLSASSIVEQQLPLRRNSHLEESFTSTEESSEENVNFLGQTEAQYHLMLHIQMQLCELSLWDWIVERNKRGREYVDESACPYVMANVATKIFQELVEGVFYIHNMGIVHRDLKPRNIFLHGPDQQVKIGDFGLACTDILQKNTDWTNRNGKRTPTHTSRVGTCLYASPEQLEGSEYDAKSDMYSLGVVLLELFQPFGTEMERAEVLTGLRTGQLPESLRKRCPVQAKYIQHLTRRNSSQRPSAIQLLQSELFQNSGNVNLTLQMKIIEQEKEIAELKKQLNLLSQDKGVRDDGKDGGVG
T4 sequence (Q99558 whole entry): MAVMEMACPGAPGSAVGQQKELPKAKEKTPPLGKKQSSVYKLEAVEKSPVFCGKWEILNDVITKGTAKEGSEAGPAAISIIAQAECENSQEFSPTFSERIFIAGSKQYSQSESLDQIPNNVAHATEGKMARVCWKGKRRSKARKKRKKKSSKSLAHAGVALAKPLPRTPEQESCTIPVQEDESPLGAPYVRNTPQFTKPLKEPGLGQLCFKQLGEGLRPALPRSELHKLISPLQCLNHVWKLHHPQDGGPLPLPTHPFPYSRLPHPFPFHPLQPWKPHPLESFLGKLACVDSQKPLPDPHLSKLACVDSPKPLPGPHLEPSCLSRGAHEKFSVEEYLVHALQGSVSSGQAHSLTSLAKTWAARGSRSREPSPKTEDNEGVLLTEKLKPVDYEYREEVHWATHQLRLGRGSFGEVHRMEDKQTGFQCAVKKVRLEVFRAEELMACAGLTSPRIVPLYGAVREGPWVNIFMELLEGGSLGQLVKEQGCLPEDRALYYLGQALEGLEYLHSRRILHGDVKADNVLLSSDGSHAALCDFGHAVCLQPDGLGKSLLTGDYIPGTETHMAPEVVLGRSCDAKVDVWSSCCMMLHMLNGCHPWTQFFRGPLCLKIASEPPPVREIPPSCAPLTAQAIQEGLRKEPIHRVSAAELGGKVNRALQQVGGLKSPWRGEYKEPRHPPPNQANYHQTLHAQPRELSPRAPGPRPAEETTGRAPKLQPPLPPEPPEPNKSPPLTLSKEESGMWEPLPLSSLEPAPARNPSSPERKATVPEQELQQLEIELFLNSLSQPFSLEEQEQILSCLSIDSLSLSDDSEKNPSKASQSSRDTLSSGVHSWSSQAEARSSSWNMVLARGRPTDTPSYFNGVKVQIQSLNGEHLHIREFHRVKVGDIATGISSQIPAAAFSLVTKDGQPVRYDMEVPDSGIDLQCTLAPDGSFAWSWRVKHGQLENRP

Structure (SMILES): NC(=O)c1cccc2cn(-c3ccc([C@@H]4CCCNC4)cc3)nc12 [Niraparib]
percent of control binding at 10 µM (AMPK-alpha2; [1]): 89%
percent of control binding at 10 µM (EIF2AK1; [1]): 93%
percent of control binding at 10 µM (FLT3(N841I); [1]): 77%
percent of control binding at 10 µM (MEK5; [1]): 66%
percent of control binding at 10 µM (NIK; [1]): 100%
percent of control binding at 10 µM (PRKCE; [1]): 100%

percent of control binding at 10 µM (AMPK-alpha2; [2]): 93%
percent of control binding at 10 µM (EIF2AK1; [2]): 83%
percent of control binding at 10 µM (FLT3(N841I); [2]): 95%
percent of control binding at 10 µM (MEK5; [2]): 77%
percent of control binding at 10 µM (NIK; [2]): 89%
percent of control binding at 10 µM (PRKCE; [2]): 93%
Structure (SMILES): O=C(c1cc(Cc2n[nH]c(=O)c3ccccc23)ccc1F)N1CCN(C(=O)C2CC2)CC1 [Olaparib]

percent of control binding at 10 µM (AMPK-alpha2; [3]): 87%
percent of control binding at 10 µM (EIF2AK1; [3]): 72%
Rucaparib / %Ctrl @ 10000nM (FLT3(N841I); binding competition, % of control): 64%
percent of control binding at 10 µM (MEK5; [3]): 70%
percent of control binding at 10 µM (NIK; [3]): 74%
percent of control binding at 10 µM (PRKCE; [3]): 74%
Structure (SMILES): CNCc1ccc(-c2[nH]c3cc(F)cc4c3c2CCNC4=O)cc1 [Rucaparib]

percent of control binding at 10 µM (AMPK-alpha2; [4]): 94%
percent of control binding at 10 µM (EIF2AK1; [4]): 100%
percent of control binding at 10 µM (FLT3(N841I); [4]): 100%
percent of control binding at 10 µM (MEK5; [4]): 51%
percent of control binding at 10 µM (NIK; [4]): 100%
percent of control binding at 10 µM (PRKCE; [4]): 93%
Structure (SMILES): Cn1ncnc1[C@H]1c2n[nH]c(=O)c3cc(F)cc(c23)N[C@@H]1c1ccc(F)cc1 [Talazoparib]
